Legend:
[1] = system: L. donovani (MHOM/IN/00/DEVI) promastigotes; assay: In vitro antileishmanial activity on promastigotes, MTT assay; type: cell-based; conditions: Leishmania donovani, 72 h incubation, mean +/- SD of three independent experiments
Procedure: L. donovani (MHOM/IN/00/DEVI) used in this study was provided by the CNR Leishmania (Montpellier, France). The effects of the tested compounds on the growth of L. donovani (MHOM/IN/00/DEVI) promastigotes were assessed by MTT assay. Briefly, promastigotes in log-phase in Schneider’s medium supplemented with 20% fetal calf serum (FCS), 2 mM L-glutamine and antibiotics (100 U/mL penicillin and 100 µg/mL streptomycin), were incubated at an average density of 10^6 parasites/mL in sterile 96-well plates with various concentrations of compounds previously dissolved in DMSO (final concentration less than 0.5% v/v), in duplicate. […] Duplicate assays were performed for each sample. After the 72 h incubation period at 27 °C, parasite metabolic activity was determined. Each well was microscopically examined for precipitate formation. To each well was added 10 µL of 10 mg/mL MTT [3-(4,5-dimethylthiazol-2-yl)-2,5-diphenyltetrazolium bromide)] solution followed by 4 h incubation time. The enzyme reaction was stopped by addition of 100 µL of 50% isopropanol/10% sodium dodecyl sulfate. Plates were vigorously shaken (300 rpm) for 10 min, and the absorbance was measured at 570 nm with 630 nm as reference wavelength in a BIOTEK ELx808 Absorbance Microplate Reader (Agilent Technologies, Les Ulis, France). […] IC50 of the parasite’s growth (half maximal inhibitory concentration or IC50 values) were then calculated from the obtained experimental results using a previously described regression program. IC50 values were calculated from three independent experiments.

[2] = system: Plasmodium falciparum CQ-resistant strain W2; assay: In vitro antiplasmodial activity, SYBR Green I fluorescence-based method, strain W2; type: cell-based; conditions: CQ-resistant strain W2, 48 h incubation, mean of three independent experiments, read-out: P. falciparum Strains IC50 Values W2
Procedure: (§1) The in vitro antiplasmodial activities were tested over concentrations ranging from 39 nM to 40 µM against culture-adapted Plasmodium falciparum reference strains 3D7 and W2. […] These two strains are obtained from the collection of the National Museum of Natural History (Paris, France). The parasites were cultivated in RPMI medium (Sigma Aldrich, Lyon, France) supplemented with 0.5% Albumax I (Life Technologies Corporation, Paisley, UK), hypoxanthine (Sigma Aldrich), and gentamicin (Sigma Aldrich) with human erythrocytes and were incubated at 37 °C in a candle jar, as described previously. The P. falciparum drug susceptibility test was carried out in 96-well flat bottom sterile plates in a final volume of 250 µL. After 48 h incubation period with the drugs, quantities of DNA in treated and control cultures of parasites in human erythrocytes were quantified using the SYBR Green I (Sigma Aldrich) fluorescence-based method. Briefly, after incubation, plates were frozen at -20 °C until use. Plates were then thawed for 2 h at room temperature, and 100 µL of each homogenized culture was transferred to a well of a 96-well flat bottom sterile black plate (Nunc, Inc.) that contained 100 µL of the SYBR Green I lysis buffer (2xSYBR Green, 20 mM Tris base pH 7.5, 5 mM EDTA, 0.008% w/v saponin, 0.08% w/v Triton X-100). […] Plates were incubated for 1 h at room temperature and then read on a fluorescence plate reader (Tecan, Austria) using excitation and emission wavelengths of 485 and 535 nm, respectively.

[3] = system: T. brucei brucei AnTat 1.9; assay: In vitro antitrypanosomal activity, Alamar Blue assay; type: cell-based, Trypanosoma brucei brucei; conditions: Trypanosoma brucei, slender bloodstream trypomastigotes, AnTat 1.9 strain; mean +/- SD of three independent experiments; read-out: Trypanosoma brucei brucei IC50 Values Trypanos Antat 1.9
Procedure: The effects of the tested compounds on the growth of T. brucei brucei were assessed using an Alamar Blue® assay described by Räz et al. T. brucei brucei AnTat 1.9 ([…], Belgium) was cultured in MEM with Earle's salts, supplemented according to the protocol of Baltz et al. […] All doses were tested in duplicate. Appropriate controls treated with solvents 0.9% NaCl or DMSO or with suramin, pentamidine, eflornithine, and fexinidazole (reference drugs purchased from Sigma Aldrich and Fluorochem, UK) were added to each set of experiments. After 69 h incubation period at 37 °C, 10 μL of the viability marker Alamar Blue (Fisher) was added to each well, and the plates were incubated for 5 h. The plates were read in a PerkinElmer ENSPIRE (Germany) microplate reader using an excitation wavelength of 530 nm and an emission wavelength of 590 nm.

[4] = system: Plasmodium telomeric sequence FPf8T G-quadruplex; assay: FRET melting assay, FPf8T; type: binding, Plasmodium falciparum; conditions: compound 2 μM, oligonucleotide 0.2 μM, K+ conditions
Procedure: (§2) These were performed with dual-labeled oligonucleotides mimicking the Plasmodium telomeric sequences FPf1T [FAM-5′(GGGTTTA)3-GGG3′-TAMRA] and FPf8T [FAM-5′(GGGTTCA)3GGG3′-TAMRA], the Trypanosoma 9 and 11 chromosomic sequence FTrypBT (also named FEBR1T) [FAM-5′[…]3′-TAMRA], the human telomeric sequence F21T [FAM-(GGGTTA)3-GGG3′-TAMRA] and the human duplex sequence FdxT [FAM5′-[…]-hexaethyleneglycol-[…]3′-TAMRA] [27, 31, 47]. The oligonucleotides were pre-folded in 10 mM lithium cacodylate buffer (pH 7.2), with 10 mM KCl and 90 mM LiCl (K^+ condition). The FAM emissions were recorded at 516 nm using a 492-nm excitation wavelength in the absence and presence of a single compound as a function of temperature (25 to 95 °C) in 96-well microplates using a Stratagene MX3000P real-time PCR device at a rate of 1 °C∙min-1. Data were normalized between 0 and 1, and the required temperature for half-denaturation of oligonucleotides corresponding to the emission value of 0.5 was taken as the Tm. Each experiment was performed in duplicate with 0.2 µM of labeled oligonucleotide and 2 µM of compound under K^+ condition. For each compound, three independent experiments were carried out.

[5] = system: Plasmodium falciparum CQ-sensitive strain 3D7; assay: In vitro antiplasmodial activity, SYBR Green I fluorescence-based method, strain 3D7; type: cell-based; conditions: CQ-sensitive strain 3D7, 48 h incubation, mean of three independent experiments, read-out: P. falciparum Strains IC50 Values 3D7
Procedure: as §1

[6] = system: human telomeric sequence F21T G-quadruplex; assay: FRET melting assay, F21T; type: binding; conditions: compound 2 μM, oligonucleotide 0.2 μM, K+ conditions
Procedure: as §2

[7] = system: Trypanosoma 9 and 11 chromosomic sequence FTrypBT (FEBR1T) G-quadruplex; assay: FRET melting assay, FtrypBT; type: binding, Trypanosoma brucei brucei; conditions: compound 2 μM, oligonucleotide 0.2 μM, K+ conditions
Procedure: as §2

[8] = system: Plasmodium telomeric sequence FPf1T G-quadruplex; assay: FRET melting assay, FPf1T; type: binding, Plasmodium falciparum; conditions: compound 2 μM, oligonucleotide 0.2 μM, K+ conditions
Procedure: as §2

[9] = system: human duplex sequence FdxT; assay: FRET melting assay, duplex control FdxT; type: binding; conditions: compound 2 μM, oligonucleotide 0.2 μM, K+ conditions
Procedure: as §2

[10] = Cytotoxicity evaluation, MTT assay; type: cell-based, human; conditions: human
Procedure: These cells are a commonly used human hepatocarcinoma-derived cell line that has characteristics similar to those of primary hepatocytes. These cells express many hepatocyte-specific metabolic enzymes, thus enabling the cytotoxicity of tested product metabolites to be evaluated. […] Duplicate assays were performed for each sample. Each well was microscopically examined for precipitate formation before the medium was aspirated from the wells. After aspiration, 100 µL of MTT solution (0.5 mg/mL in medium without FCS) were then added to each well. […] The MTT solution was removed, and DMSO (100 µL) was added to dissolve the resulting blue formazan crystals. Plates were shaken vigorously (300 rpm) for 5 min. The absorbance was measured at 570 nm with 630 nm as reference wavelength in a BIO-TEK ELx808 Absorbance Microplate Reader. DMSO was used as blank and doxorubicin (Sigma Aldrich) as positive control. Cell viability was calculated as percentage of control (cells incubated without compound). The CC50 was determined from the dose-response curve using TableCurve 2D V5.0 software (Systat Software, Palo Alto, CA, USA).

CN(C)CCNCc1cc(-c2ccccc2)c2ccc3c(-c4ccccc4)cc(CNCCN(C)C)nc3c2n1 [Compound 1a, 2,9-Bis[(2-dimethylaminoethyl)aminomethyl]-4,7-diphenyl-1,10-phenanthroline]
IC50 [1]: > 12500 nM | IC50 [2]: 1000 ± 340 nM | IC50 [3]: 670 ± 30 nM | ΔTm FPf8T [4]: 1.6 °C | IC50 [5]: 1800 ± 670 nM | ΔTm F21T [6]: 1.8 °C | ΔTm FtrypBT [7]: 1.9 °C | ΔTm FPf1T [8]: 1.8 °C | ΔTm FdxT [9]: −0.3 °C

CN(C)CCCNCc1cc(-c2ccccc2)c2ccc3c(-c4ccccc4)cc(CNCCCN(C)C)nc3c2n1 [Compound 1b, 2,9-Bis[(3-dimethylaminopropyl)aminomethyl]-4,7-diphenyl-1,10-phenanthroline]
CC50 at 72 h [10]: 5960 ± 200 nM | IC50 [1]: > 12500 nM | IC50 [2]: 6130 ± 1630 nM | IC50 [3]: 570 ± 70 nM | ΔTm FPf8T [4]: 7.9 °C | IC50 [5]: 21200 ± 7720 nM | ΔTm F21T [6]: 12.8 °C | ΔTm FtrypBT [7]: 8.7 °C | ΔTm FPf1T [8]: 7.4 °C | ΔTm FdxT [9]: −0.3 °C

CN1CCN(CCNCc2cc(-c3ccccc3)c3ccc4c(-c5ccccc5)cc(CNCCN5CCN(C)CC5)nc4c3n2)CC1 [Compound 1e]
CC50 at 72 h [10]: 10500 ± 1270 nM | IC50 [1]: > 12500 nM | IC50 [2]: 920 ± 180 nM | IC50 [3]: 450 ± 30 nM | ΔTm FPf8T [4]: 10.5 °C | IC50 [5]: 2160 ± 320 nM | ΔTm F21T [6]: 9.6 °C | ΔTm FtrypBT [7]: 8.0 °C | ΔTm FPf1T [8]: 9.4 °C | ΔTm FdxT [9]: −1.6 °C

CN1CCN(CCCNCc2cc(-c3ccccc3)c3ccc4c(-c5ccccc5)cc(CNCCCN5CCN(C)CC5)nc4c3n2)CC1 [Compound 1f]
CC50 at 72 h [10]: 8620 ± 500 nM | IC50 [1]: > 12500 nM | IC50 [2]: 11300 ± 2930 nM | IC50 [3]: 970 ± 110 nM | ΔTm FPf8T [4]: 10.9 °C | IC50 [5]: 21500 ± 4100 nM | ΔTm F21T [6]: 10.8 °C | ΔTm FtrypBT [7]: 9.1 °C | ΔTm FPf1T [8]: 8.8 °C | ΔTm FdxT [9]: −0.5 °C

CN1CCN(CCCCNCc2cc(-c3ccccc3)c3ccc4c(-c5ccccc5)cc(CNCCCCN5CCN(C)CC5)nc4c3n2)CC1 [Compound 1g]
CC50 at 72 h [10]: 16800 ± 600 nM | IC50 [1]: > 12500 nM | IC50 [2]: 2480 ± 490 nM | IC50 [3]: 960 ± 130 nM | ΔTm FPf8T [4]: 14.5 °C | IC50 [5]: 8190 ± 3530 nM | ΔTm F21T [6]: 11.2 °C | ΔTm FtrypBT [7]: 12.2 °C | ΔTm FPf1T [8]: 13.4 °C | ΔTm FdxT [9]: −0.5 °C

c1ccc(-c2cc(CNCCN3CCOCC3)nc3c2ccc2c(-c4ccccc4)cc(CNCCN4CCOCC4)nc23)cc1 [Compound 1h]
CC50 at 72 h [10]: 5890 ± 530 nM | IC50 [1]: 4500 ± 2200 nM | IC50 [2]: 170 ± 50 nM | IC50 [3]: 220 ± 60 nM | ΔTm FPf8T [4]: 1.9 °C | IC50 [5]: 670 ± 210 nM | ΔTm F21T [6]: 2.0 °C | ΔTm FtrypBT [7]: 2.2 °C | ΔTm FPf1T [8]: 1.8 °C | ΔTm FdxT [9]: −0.9 °C

c1ccc(-c2cc(CNCCCN3CCOCC3)nc3c2ccc2c(-c4ccccc4)cc(CNCCCN4CCOCC4)nc23)cc1 [Compound 1i]
CC50 at 72 h [10]: 6290 ± 1060 nM | IC50 [1]: > 12500 nM | IC50 [2]: 40 ± 10 nM | IC50 [3]: 290 ± 20 nM | ΔTm FPf8T [4]: 6.7 °C | IC50 [5]: 1450 ± 580 nM | ΔTm F21T [6]: 8.2 °C | ΔTm FtrypBT [7]: 6.0 °C | ΔTm FPf1T [8]: 6.7 °C | ΔTm FdxT [9]: −1.5 °C

c1ccc(-c2cc(CNCCN3CCCCC3)nc3c2ccc2c(-c4ccccc4)cc(CNCCN4CCCCC4)nc23)cc1 [Compound 1j]
CC50 at 72 h [10]: 1640 ± 140 nM | IC50 [1]: 2520 ± 200 nM | IC50 [2]: 2600 ± 550 nM | IC50 [3]: 200 ± 20 nM | ΔTm FPf8T [4]: 7.3 °C | IC50 [5]: 1590 ± 590 nM | ΔTm F21T [6]: 7.7 °C | ΔTm FtrypBT [7]: 7.2 °C | ΔTm FPf1T [8]: 5.6 °C | ΔTm FdxT [9]: 0.2 °C

Reference: publication PMC9699089 (Pathogens, 2022)
